Measurements taken from patent publication US20200368315A1, “ANTIMICROBIAL PEPTIDES AND ADMIXTURES THEREOF SHOWING ANTIMICROBIAL ACTIVITY AGAINST GRAM-NEGATIVE PATHOGENS” (priority 2017, published 2020).
In brackets after ≈: the same amount, converted by molar mass. Several values for one entry are separate records, joined by “and”; a condition that tells them apart may be missing. Equal values may be shown once. Read-outs that look alike come from different tables or passages of the source.

What was measured:
[1] = system: E. coli LMG15862
Outline: (§1)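 Chequerboard broth microdilution in MHB of two agents in combination, final volume 100 uL, with growth and sterility controls. MICs alone and in combination give FICI = MICac/MICa + MICbc/MICb; synergy FICI≤0.5, additive 0.5–1, indifferent 1–2, antagonism >2.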

[2] = system: P. aeruginosa LMG 6395
Outline: as §1

[3] = system: E. aerogenes LMG 02094
Outline: as §1

[4] = system: K. pneumoniae LMG20218
Outline: as §1

[5] = system: A. baumannii LMG01041
Outline: as §1

[6] = system: human red blood cells (HRBc); assay: Hemolytic test
Protocol: Fresh human red blood cells (HRBc) were used for the hemolytic tests. After incubation with different concentrations of test compounds at 37° C. for 1 hour, the absorbance of the supernatant were measured.

[7] = system: HEK293 cells; assay: Cell viability (ATP levels, CellTiter-Glo); conditions: HEK293 cells
Protocol: ATP levels were measured by adding 50 μL of CellTiter-Glo reagent to each well and after 5 minutes of incubation luminescence was measured with SpectraMax i3.
96-well plates were seeded with HEK293 cells at concentration of 30,000 cells per well in 100 μL of DMEM growth media supplemented with 1% NEAA and 10% FBS. Border wells were filled with 100 μL of sterile PBS. The next day compounds were added to cells. Compounds were first 2× diluted in 96-well V-bottom plate in PBS. After that compounds were mixed with media in 96-deep-well plate for final concentrations. Growth media from 3 plates was aspirated and replaced with 100 μL of prepared compounds. Compounds were tested in duplicate. ATP levels were measured by adding 50 μL of CellTiter-Glo reagent to each well and after 5 minutes of incubation luminescence was measured with SpectraMax i3. […] The potential effects were then calculated and presented as IC50 values (μg/mL).

[8] = system: K. pneumoniae LMG20218; assay: microbe, parasite or virus in culture; format: cell-based, Klebsiella pneumoniae; conditions: for MIC: Klebsiella pneumoniae
Outline: (§2)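 Broth microdilution MIC in duplicate, polypropylene plates, Mueller Hinton Broth, final inoculum 5*10^5 CFU/mL, 2-fold serial compound dilutions, 37° C. MIC taken as lowest concentration inhibiting visible growth; inoculum checked by plating a dilution of the growth control.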

[9] = system: A. baumannii LMG01041; assay: microbe, parasite or virus in culture; format: cell-based, Acinetobacter baumannii; conditions: for MIC: Acinetobacter baumannii
Outline: as §2

[10] = system: Gram-negative pathogens; format: cell-based; conditions: alone; over the 5 Gram-negative pathogens
Protocol: Escherichia coli, Klebsiella pneumoniae, Pseudomonas aeruginosa, Acinetobacter baumannii, Enterobacter aerogenes were grown in Luria-Bertani (LB) broth shaken (200 rpm) or on LB agar at 37° C. […] MICs tests were performed in duplicate by a liquid growth inhibition microdilution assays in sterilized polypropylene microtiter plates according to Wiegand and […] [27]. […] The suspension was diluted in a ratio of 1:100 using Mueller Hinton Broth (MHB) and the final inoculum is 5*10^5 CFU/mL. […] The antimicrobials were diluted serially by 1/2 one by one and 50 uL diluted bacterial suspension were added to each well to make the final volume to be 100 uL. Growth control was accomplished by remove 10 uL from well 11 and dilute 1000 times to plate 1/10 suspension on the solid medium. […] The number of colonies on the control agar plate should be around 50 to ensure the concentration of the inoculum and the effectiveness of the experiment. The lowest concentration of the antimicrobials that inhibits visible growth of the indicator is identified as MIC.

[11] = system: E. coli LMG15862; assay: microbe, parasite or virus in culture; format: cell-based, Escherichia coli; conditions: for MIC: Escherichia coli
Outline: as §2

[12] = system: Pseudomonas aeruginosa B1954, clinical isolate; assay: microbe, parasite or virus in culture; conditions: for MIC: Pseudomonas aeruginosa
Protocol: Testing was performed according to CLSI (Clinical Laboratory Standards Institute) guidelines. Read out of the study was determination of MIC—minimal inhibitory concentration expressed in μg/mL.
Out of these PBS solutions, 76.8 μL was transferred to 1423.2 μL of MH media in deep well for testing compound alone. […] Out of these working solutions 100 μL were transferred to wells in the third column of 96-well assay plates. Assay plates were previously filled with 50 μL of MH media in all wells except for the wells in the third column.
Microorganisms used were all revived from skim milk storage at −70° C. by plating them on MH agar plates. The following day a single colony of each microorganism was again streaked on fresh agar plates. The next day, using direct colony suspension method, broth solutions that achieve turbidity equivalent to 0.5 McFarland standard for each microorganism were prepared. […] Out of these suspensions, actual inoculums were prepared by diluting them 100× with MH media giving final microorganism count of 2-8×10^5 CFU/mL. For each strain of microorganisms, 20 mL of these inoculum solutions were prepared. From the second to the twelfth column of 96-well plates, 50 μL of these solutions were transferred per well. To the first column, 50 μL per well of pure growth media was added. In this manner the first column was used as sterility control of media used, the second column was used as control of microorganism's growth and the rest of the plate was used for MIC determination. All plates were incubated for 16-24 h at 37° C.
MIC value was determined by visual inspection of bacterial growth within 96-well plates. The first column in which there was no visible growth of bacteria was determined as MIC value for peptide or combination tested in that particular row.

[13] = system: E. aerogenes LMG 02094; assay: microbe, parasite or virus in culture; format: cell-based, Enterobacter aerogenes; conditions: for MIC: Klebsiella aerogenes
Outline: as §2

CC[C@@H](C)[C@@H](NC(=O)[C@@H](CCCNC(=N)N)NC(=O)[C@@H](CCCNC(=N)N)NC(=O)[C@@H](Cc1ccccc1)NC(=O)[C@@H](CC(C)C)NC(=O)[C@@H](CCCNC(=N)N)NC(=O)[C@H](N)CCCNC(=N)N)C(=O)N[C@H](CC(C)C)C(=O)N[C@H](CCCNC(=N)N)C(=O)N[C@H](Cc1c[nH]c2ccccc12)C(=O)N[C@H](CC(C)C)C(N)=O [GNP-D6]
FICI ([1]; vancomycin + GNP): 0.75 and 0.5 | FICI ([2]; vancomycin + GNP): 0.75 | FICI ([3]; vancomycin + GNP): 0.667 | FICI ([4]; vancomycin + GNP): 0.75 and 0.5 | FICI ([5]; vancomycin + GNP): 0.5 and 0.625 | HC50 ([6]; HRBc, 37° C., 1 hour): 168.9 µM | HC50 relative to the working concentration ([6]; working concentration 2 μM): 80 fold | IC50 ([7]; read-out: IC50 (cell viability, ATP levels)): 32.9 µM | MIC value ([8]; alone, K. pneumoniae LMG20218): 2 µM (≈ 3.17 µg/mL) | MIC value ([9]; alone, A. baumannii LMG01041): 2 µM (≈ 3.17 µg/mL) | MIC / concentration needed to inhibit growth [10]: 2 µM (≈ 3.17 µg/mL) | MIC value ([11]; alone, E. coli LMG15862): 2 µM (≈ 3.17 µg/mL) | MIC value ([12]; alone, MDR P. aeruginosa B1954): 2.53 µM | MIC value ([13]; alone, E. aerogenes LMG 02094): 2 µM (≈ 3.17 µg/mL)

CN[C@H](CC(C)C)C(=O)N[C@H]1C(=O)N[C@@H](CC(N)=O)C(=O)N[C@H]2C(=O)N[C@H]3C(=O)N[C@H](C(=O)N[C@H](C(=O)O)c4cc(O)cc(O)c4-c4cc3ccc4O)[C@H](O)c3ccc(c(Cl)c3)Oc3cc2cc(c3O[C@@H]2O[C@H](CO)[C@@H](O)[C@H](O)[C@H]2O[C@H]2C[C@](C)(N)[C@H](O)[C@H](C)O2)Oc2ccc(cc2Cl)[C@H]1O [Vancomycin, reference compound]
MICa ([1]; MIC of vancomycin alone): 64 µM | MICa ([2]; MIC of vancomycin alone): 128 µM | MICa ([3]; MIC of vancomycin alone): 192 µM | MICa ([4]; MIC of vancomycin alone): 128 µM | MICa ([5]; MIC of vancomycin alone): 32 µM | Hemolysis in the HRBc ([6]; even at 500 μM): did not induce hemolysis | HC50 (hemolytic activity) ([6]; human red blood cells, 37° C., 1 hour): >500 µM | Effect on ATP levels ([7]; at concentrations tested): do not affect the ATP levels | MIC ([8]; LMG20218, read-out: MIC value): 128 µM (≈ 186 µg/mL) | MIC ([8]; LMG20218, read-out: MIC value of antimicrobial compounds alone): 128 µM (≈ 186 µg/mL) | MIC ([9]; LMG01041, read-out: MIC value): 32 µM (≈ 46.4 µg/mL) | MIC ([9]; LMG01041, read-out: MIC value of antimicrobial compounds alone): 32 µM (≈ 46.4 µg/mL) | MIC / concentration needed to inhibit growth [10]: at least 32 μM | MIC ([11]; LMG15862, read-out: MIC value): 64 µM (≈ 92.8 µg/mL) | MIC ([11]; LMG15862, read-out: MIC value of antimicrobial compounds alone): 64 µM (≈ 92.8 µg/mL) | MIC [12]: 128 µg/mL | MIC ([12]; read-out: MIC value): 88.3 µM | MIC ([13]; LMG02094, read-out: MIC value): 192 µM (≈ 278 µg/mL) | MIC ([13]; LMG02094, read-out: MIC value of antimicrobial compounds alone): 192 µM (≈ 278 µg/mL)
